The target of experiment [1] is T1, Prothrombin (Homo sapiens, UniProt P00734). Kind of experiment: In vitro inhibitory activity against human Coagulation factor IIa.
A further experiment deals with Coagulation factor X (Homo sapiens, UniProt P00742). Kind of experiment: In vitro inhibitory activity against human Coagulation factor Xa.
For the next experiment, the target named is Serine protease 1 (Homo sapiens, UniProt P07477). Kind of experiment: In vitro inhibitory activity against human trypsin.
Chain of Serine protease 1 (P07477 whole entry): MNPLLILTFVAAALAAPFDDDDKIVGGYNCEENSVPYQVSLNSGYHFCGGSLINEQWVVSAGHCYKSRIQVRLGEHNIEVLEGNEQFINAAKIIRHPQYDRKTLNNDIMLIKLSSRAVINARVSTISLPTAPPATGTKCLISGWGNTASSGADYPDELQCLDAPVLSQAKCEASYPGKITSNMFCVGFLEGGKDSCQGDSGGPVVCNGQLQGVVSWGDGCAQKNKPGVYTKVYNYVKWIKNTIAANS
Experiment [2] in a line: Activated partial thromboplastin times (APTT) was determined int human plasma. It is filed as functional.
Experiment [3] is described as follows: Activated partial thromboplastin times (APTT) was determined in rat plasma. Type of experiment: functional.
Experiment [4] can be described thus: Activated partial thromboplastin times (APTT) was determined in human plasma. Type of experiment: functional.
Experiment [5] deals with T1, Prothrombin. Nature of the experiment: Ratio of human Coagulation factor IIa to that of human Coagulation factor Xa was evaluated.

Chain of Coagulation factor X (P00742 41-179 limits assumed): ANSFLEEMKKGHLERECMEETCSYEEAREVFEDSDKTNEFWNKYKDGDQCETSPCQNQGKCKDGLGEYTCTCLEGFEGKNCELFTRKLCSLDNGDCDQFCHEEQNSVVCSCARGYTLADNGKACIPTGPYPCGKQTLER
Chain of Coagulation factor X (P00742 235-488 limits assumed): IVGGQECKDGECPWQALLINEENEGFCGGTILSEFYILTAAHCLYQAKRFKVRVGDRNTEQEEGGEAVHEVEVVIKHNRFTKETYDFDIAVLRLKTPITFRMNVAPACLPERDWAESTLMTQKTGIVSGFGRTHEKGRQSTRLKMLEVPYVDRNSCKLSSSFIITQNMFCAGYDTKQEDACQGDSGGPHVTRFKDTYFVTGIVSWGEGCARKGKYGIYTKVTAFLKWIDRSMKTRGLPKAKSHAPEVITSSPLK

What is called Ki is a measure of affinity in units of concentration, obtained from inhibition or displacement. Read a high Ki as weaker binding. With `COC(=O)[C@H](Cc1cccc(C(=N)N)c1)[C@@H](Cc1ccccc1)NC(=O)c1ccc(-c2ccccc2)cc1`, the Ki is 709 nM on Prothrombin [1], 11 nM at Coagulation factor X and 75 nM at Serine protease 1.

As to `COC(=O)[C@H](Cc1cccc(C(=N)N)c1)[C@@H](CCc1ccccc1)NC(=O)c1ccc(-c2ccccc2)cc1`, the inhibition constant (Ki) came out at 810 nM at Prothrombin [1], 21 nM on Coagulation factor X and 67 nM on Serine protease 1.

As to `CC[C@@H](NC(=O)c1ccc(-c2cccc(CN)c2)cc1)[C@@H](Cc1cccc(C(=N)N)c1)C(=O)OC`, the figures for the Ki on Prothrombin [1], on Coagulation factor X and at Serine protease 1 were 2100 nM, 0.7 nM and 63 nM, respectively.

`COC(=O)[C@H](Cc1cccc(C(=N)N)c1)[C@@H](C)NC(=O)c1ccc(-c2ccc(C(=O)O)cc2)cc1`: the Ki at Prothrombin [1] was above 4000 nM; at Coagulation factor X, 69 nM.

Consider `COC(=O)[C@H](Cc1cccc(C(=N)N)c1)[C@@H](CC(C)C)NC(=O)c1ccc(-c2cccc(CN)c2)cc1`, for which the values for the Ki on Prothrombin [1], at Coagulation factor X and on Serine protease 1 were 990 nM, 0.4 nM and 38 nM, respectively.

As for `COC(=O)[C@H](Cc1cccc(C(=N)N)c1)[C@@H](C)NC(=O)c1ccc(-c2ccc(C(N)=O)cc2)cc1`, the results for the Ki at Prothrombin [1], on Coagulation factor X and at Serine protease 1 were above 4000 nM, 2 nM and 42 nM, respectively.

For the molecule `COC(=O)[C@H](Cc1cccc(C(=N)N)c1)[C@@H](C)NC(=O)c1ccc(-c2cccc(C(N)=O)c2)cc1`, the inhibition constant (Ki) on Prothrombin [1] was above 4000 nM; at Serine protease 1 it was 90 nM.

For `COC(=O)[C@H](Cc1cccc(C(=N)N)c1)[C@@H](C)NC(=O)c1ccc(-c2cccc(CN)c2)cc1`, the figures for the APTT in experiment [2] and in experiment [3] were 0.33 µM and 1.7 µM, respectively. On Serine protease 1, this molecule had a Ki of 69 nM.

On to `COC(=O)[C@H](Cc1cccc(C(=N)N)c1)[C@@H](C)NC(=O)c1ccc(-c2cccc(CN(C)C)c2)cc1`, for which the values for the inhibitory constant (Ki) at Prothrombin [1], on Coagulation factor X and at Serine protease 1 were 2660 nM, 1 nM and 95 nM, respectively.

For the molecule `COC(=O)[C@H](Cc1cccc(C(=N)N)c1)[C@@H](CC1CCCCC1)NC(=O)c1ccc(-c2cccc(CN)c2)cc1`, the inhibition constant (Ki) is 650 nM at Prothrombin [1], 4 nM on Coagulation factor X and 36 nM on Serine protease 1.

`CCOC(=O)NCc1cccc(-c2ccc(C(=O)N[C@H](C)[C@@H](Cc3cccc(C(=N)N)c3)C(=O)OC)cc2)c1`: the Ki on Prothrombin [1] is above 4000 nM; on Coagulation factor X it was above 1200 nM; on Serine protease 1, above 2900 nM.

As to `COC(=O)[C@H](Cc1cccc(C(=N)N)c1)[C@@H](C)NC(=O)c1ccc(-c2ccccc2)cc1`, the inhibition constant (Ki) on Coagulation factor X came out at 5.3 nM; at Serine protease 1 it was 69 nM. Moreover, the APTT in experiment [4] was 3.9 µM; in experiment [3] it was 5.05 µM. Further, at Prothrombin [5], the Ki ratio (IIa/Xa) was around 3250.

On to `COC(=O)[C@@H](CNC(=O)c1ccc(-c2ccccc2)cc1)Cc1cccc(C(=N)N)c1`, for which the Ki at Prothrombin [1] is above 3950 nM; on Coagulation factor X it was 20 nM; at Serine protease 1, 230 nM.

With `COC(=O)[C@H](Cc1cccc(C(=N)N)c1)[C@H](NC(=O)c1ccc(-c2cccc(CN)c2)cc1)C(C)C`, the inhibition constant Ki on Prothrombin [1] was above 3950 nM; on Coagulation factor X, 8 nM; at Serine protease 1 it was 300 nM.

As for `COC(=O)[C@H](Cc1cccc(C(=N)N)c1)[C@@H](/C=C/c1ccccc1)NC(=O)c1ccc(-c2ccccc2)cc1`, the Ki at Prothrombin [1] is 954 nM; at Coagulation factor X, 9.4 nM.

The record behind these values is ChEMBL document CHEMBL1135154, “Optimization of the beta-aminoester class of factor Xa inhibitors. Part 1: P(4) and side-chain modifications for improved in vitro potency” (Bioorg Med Chem Lett, 2002).
